Data set [1] deals with T1, rat histamine H3 receptor (Rattus norvegicus, UniProt Q9QYN8).
T1 construct: encoding the entire 445-amino-acid rat histamine H3 receptor; expressed in transfected cells
The data set is described as follows: Rat H3 radioligand binding ([3H]-N-alpha-methylhistamine, SPA). The note with it: membranes of CHO-A3 cells expressing rat H3; [3H]-N-alpha-methylhistamine; read-out: Rat H3 Ki. The essentials:
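Membranes from CHO-A3 cells stably expressing full-length rat H3 receptor (445 aa) incubated with ~1 nM [3H]-N-alpha-methylhistamine and compound (0.01 nM–30 μM) in 50 mM Tris HCl pH 7.4, 5 mM MgCl2, 0.1% BSA, 4 h, room temperature; SPA bead read-out. Non-specific binding defined with 10 μM clobenpropit.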

Data set [2] deals with T2, human H3 receptor (Homo sapiens, UniProt Q9Y5N1).
T2 construct: expressed in transfected cells
The data set is described as follows: Human H3 radioligand binding ([3H]-N-alpha-methylhistamine, SPA). As to conditions: membranes of CHO cells expressing human H3. The essentials:
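Membranes from H3-expressing cells (10 μg protein/well) in 50 mM Tris HCl pH 7.4, 5 mM MgCl2, 0.1% BSA with ~1 nM [3H]-N-alpha-methylhistamine and compound (0.01 nM–30 μM), SPA beads, 4 h, room temperature, dark. Non-specific binding defined with 10 μM clobenpropit; bound radioligand read by scintillation counting.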

Some results are limits rather than exact numbers.

What is called Ki is a dissociation constant, usually derived from enzyme kinetics or from competition with a known ligand. By melting point is commonly meant the temperature, or range, at which the solid turns liquid.

T1 sequence (Q9QYN8 whole entry): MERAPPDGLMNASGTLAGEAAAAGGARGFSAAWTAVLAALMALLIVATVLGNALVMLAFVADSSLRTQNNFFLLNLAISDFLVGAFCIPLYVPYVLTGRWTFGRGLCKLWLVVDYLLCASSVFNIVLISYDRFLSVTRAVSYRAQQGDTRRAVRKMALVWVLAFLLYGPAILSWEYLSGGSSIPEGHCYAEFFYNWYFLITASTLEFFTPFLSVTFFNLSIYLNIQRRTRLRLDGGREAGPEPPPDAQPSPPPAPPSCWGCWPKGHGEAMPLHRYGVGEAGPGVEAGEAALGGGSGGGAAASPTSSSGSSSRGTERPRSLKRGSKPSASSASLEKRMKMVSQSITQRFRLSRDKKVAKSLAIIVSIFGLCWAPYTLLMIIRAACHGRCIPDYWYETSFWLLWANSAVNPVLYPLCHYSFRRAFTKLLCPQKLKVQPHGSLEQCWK
T2 sequence (Q9Y5N1 whole entry): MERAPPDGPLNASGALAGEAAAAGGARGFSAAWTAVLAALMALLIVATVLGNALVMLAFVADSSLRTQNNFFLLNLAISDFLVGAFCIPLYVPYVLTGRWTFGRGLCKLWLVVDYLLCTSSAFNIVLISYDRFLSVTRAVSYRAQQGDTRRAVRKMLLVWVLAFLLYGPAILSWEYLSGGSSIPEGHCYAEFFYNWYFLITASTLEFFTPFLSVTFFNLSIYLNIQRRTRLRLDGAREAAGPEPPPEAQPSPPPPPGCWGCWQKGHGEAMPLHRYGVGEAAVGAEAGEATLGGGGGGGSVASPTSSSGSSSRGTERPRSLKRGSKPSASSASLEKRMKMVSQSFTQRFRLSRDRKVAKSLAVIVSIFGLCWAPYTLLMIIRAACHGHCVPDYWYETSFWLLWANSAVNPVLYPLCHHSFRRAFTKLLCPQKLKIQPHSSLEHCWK

As to `CC(=O)N1CCN(CC(=O)c2ccc(OCCCN3CCC[C@H]3C)c(C)c2)CC1` [Example 156, 2-(4-Acetyl-piperazin-1-yl)-1-{3-methyl-4-[3-((R)-2-methyl-pyrrolidin-1-yl)-propoxy]-phenyl}-ethanone], the melting point was in the range of 120 to 126 °C. Further, the Ki in data set [1] lay within 0.1 to 100 nM. The same compound displayed a Ki in data set [2] of 0.1 to 100 nM.
With `COC(=O)N1CCN(CC(=O)c2ccc(OCCCN3CCC[C@H]3C)cc2)CC1` [Example 82, 4-(2-{4-[3-((R)-2-Methyl-pyrrolidin-1-yl)-propoxy]-phenyl}-2-oxo-ethyl)-piperazine-1-carboxylic acid methyl ester], the melting point lay within 208 to 210 °C. Further, the Ki in data set [1] is 0.1 to 100 nM. Besides, the Ki in data set [2] is 0.1 to 100 nM.
With `CC(C(=O)c1ccc(OCCCN2CCOCC2)cc1)N1CCOCC1` (centres unmarked) [Example 48, 2-Morpholin-4-yl-1-[4-(3-morpholin-4-yl-propoxy)-phenyl]-propan-1-one], the melting point was determined as 258 °C. For the same compound, the Ki in data set [2] was > 1000 nM.
For `COC(=O)N1CCN(CC(=O)c2ccc(OCCCN3CCC[C@H]3C)c(F)c2)CC1` [Example 127, 4-(2-{3-Fluoro-4-[3-((R)-2-methyl-pyrrolidin-1-yl)-propoxy]-phenyl}-2-oxo-ethyl)-piperazine-1-carboxylic acid methyl ester], the melting point came to 236 °C. Further, the Ki in data set [1] was in the range of 0.1 to 100 nM. Also, the inhibition constant Ki in data set [2] was 0.1 to 100 nM.
Turning to `COC[C@@H]1CCCN1CCCOc1ccc(C(=O)CN2CCOCC2)cc1` [Example 76, 1-{4-[3-((S)-2-Methoxymethyl-pyrrolidin-1-yl)-propoxy]-phenyl}-2-morpholin-4-yl-ethanone], the melting point was in the range of 74 to 76 °C. Besides, in data set [1], the Ki was > 1000 nM. In addition, the Ki in data set [2] is > 1000 nM.
`C[C@@H]1CCCN1CCCOc1ccc(C(=O)CN2CCN(C(=O)c3cccc(Cl)c3Cl)CC2)cc1` [Example 157, 2-[4-(2,3-Dichloro-benzoyl)-piperazin-1-yl]-1-{4-[3-((R)-2-methyl-pyrrolidin-1-yl)-propoxy]-phenyl}-ethanone]: the melting point lay within 137 to 150 °C. For the same compound, the Ki in data set [1] fell in the range of 0.1 to 100 nM. Besides, the Ki in data set [2] was 0.1 to 100 nM.
The compound `C[C@@H]1CCCN1CCCOc1ccc(C(=O)CN2CCN(C(=O)c3cc4ccccc4s3)CC2)cc1` [Example 124, 2-[4-(Benzo[b]thiophene-2-carbonyl)-piperazin-1-yl]-1-{4-[3-((R)-2-methyl-pyrrolidin-1-yl)-propoxy]-phenyl}-ethanone] gave a melting point of 214 to 217 °C. Moreover, the inhibition constant Ki in data set [1] lay within 0.1 to 100 nM. This compound gave a Ki in data set [2] of 0.1 to 100 nM.
As for `C[C@@H]1CCCN1CCCOc1ccc(C(=O)CN2CCN(C(=O)N3CCOCC3)CC2)cc1` [Example 70, 1-{4-[3-((R)-2-Methyl-pyrrolidin-1-yl)-propoxy]-phenyl}-2-[4-(morpholine-4-carbonyl)-piperazin-1-yl]-ethanone], the melting point fell in the range of 116 to 125 °C. Besides, the Ki in data set [1] lay in the range of 0.1 to 100 nM. In data set [2], this compound showed a Ki of 0.1 to 100 nM.
Turning to `O=C(CN1CCOCC1)c1ccc(OCCCN2CCCCC2)cc1F` [Example 65, 1-[2-Fluoro-4-(3-piperidin-1-yl-propoxy)-phenyl]-2-morpholin-4-yl-ethanone], the melting point lay within 170 to 172 °C. In addition, the inhibitory constant (Ki) in data set [1] is > 1000 nM. Moreover, the Ki in data set [2] was in the range of 101 to 500 nM.
Taken in the same sequence, the figures for `C[C@@H]1CCCN1CCCOc1ccc(C(=O)CN2CCN(c3ccc(F)cc3)CC2)cc1` [Example 94, 2-[4-(4-Fluoro-phenyl)-piperazin-1-yl]-1-{4-[3-((R)-2-methyl-pyrrolidin-1-yl)-propoxy]-phenyl}-ethanone] were 140 to 145 °C, 0.1 to 100 nM and 0.1 to 100 nM.
Taken in the same sequence, the figures for `CC1(C)CCCN1CCCOc1ccc(C(=O)CN2CCOCC2)cc1` [Example 88, 1-{4-[3-(2,2-Dimethyl-pyrrolidin-1-yl)-propoxy]-phenyl}-2-morpholin-4-yl-ethanone] were 117 to 120 °C, > 1000 nM and > 1000 nM.
Regarding `C[C@@H]1CCCN1CCCOc1ccc(C(=O)CN2CCN(C(=O)OC(C)(C)C)CC2)cc1` [Example 117, 4-(2-{4-[3-((R)-2-Methyl-pyrrolidin-1-yl)-propoxy]-phenyl}-2-oxo-ethyl)-piperazine-1-carboxylic acid tert-butyl ester], the melting point was 198 to 199 °C. Besides, the inhibitory constant (Ki) in data set [1] fell in the range of 0.1 to 100 nM. In data set [2], this compound came in with a Ki of 0.1 to 100 nM.
In turn, `C[C@@H]1CCCN1CCCOc1cccc(C(=O)CN2CCN(C(=O)c3ccccc3)CC2)c1` [Example 153, 2-(4-Benzoyl-piperazin-1-yl)-1-{3-[3-((R)-2-methyl-pyrrolidin-1-yl)-propoxy]-phenyl}-ethanone] displayed a melting point of 125 to 135 °C. Moreover, the Ki in data set [1] is 501 to 1000 nM. Besides, in data set [2], the Ki is 101 to 500 nM.
Taken in the same sequence, the figures for `C[C@@H]1CCCN1CCCOc1ccc(C(=O)CN2CCN(C(=O)C3CCCO3)CC2)cc1` (stereo partly drawn) [Example 83, 1-{4-[3-((R)-2-Methyl-pyrrolidin-1-yl)-propoxy]-phenyl}-2-[4-(tetrahydro-furan-2-carbonyl)-piperazin-1-yl]-ethanone] were 185 to 190 °C, 0.1 to 100 nM and 0.1 to 100 nM.
On the same counts, the results for `C[C@@H]1CCCN1CCCOc1ccc(C(=O)CN2CCN(C(=O)N(C)C)CC2)cc1` [Example 79, 4-(2-{4-[3-((R)-2-Methyl-pyrrolidin-1-yl)-propoxy]-phenyl}-2-oxo-ethyl)-piperazine-1-carboxylic acid dimethylamide] are 120 to 126 °C, 0.1 to 100 nM and 0.1 to 100 nM.
In the case of `C[C@@H]1CCCN1CCCOc1ccc(C(=O)CN2CCCC(C)(C)C2)cc1` [Example 55, 2-(3,3-Dimethyl-piperidin-1-yl)-1-{4-[3-((R)-2-methyl-pyrrolidin-1-yl)-propoxy]-phenyl}-ethanone], the melting point lay in the range of 108 to 120 °C. Besides, in data set [1], the inhibition constant (Ki) is 0.1 to 100 nM. The same compound came in with a Ki in data set [2] of 0.1 to 100 nM.
`C[C@@H]1CCCN1CCCOc1ccc(C(=O)CN2CCN(C(=O)c3cccs3)CC2)cc1` [Example 80, 1-{4-[3-((R)-2-Methyl-pyrrolidin-1-yl)-propoxy]-phenyl}-2-[4-(thiophene-2-carbonyl)-piperazin-1-yl]-ethanone]: the melting point lay within 152 to 156 °C. In data set [1], the Ki lay within 0.1 to 100 nM. For the same compound, the Ki in data set [2] lay in the range of 0.1 to 100 nM.
Take `C[C@@H]1CCCN1CCCOc1ccc(C(=O)CN2CCN(C(=O)c3ccc(Cl)c(Cl)c3)CC2)cc1` [Example 129, 2-[4-(3,4-Dichloro-benzoyl)-piperazin-1-yl]-1-{4-[3-((R)-2-methyl-pyrrolidin-1-yl)-propoxy]-phenyl}-ethanone]: the melting point fell in the range of 88 to 90.5 °C. Besides, the Ki in data set [1] is 0.1 to 100 nM. In data set [2], this compound returned a Ki of 0.1 to 100 nM.
In the case of `C[C@@H]1CCCN1CCCOc1ccc(C(=O)CN2CCN(C(=O)c3ccccc3)CC2)cc1F` [Example 120, 2-(4-Benzoyl-piperazin-1-yl)-1-{3-fluoro-4-[3-((R)-2-methyl-pyrrolidin-1-yl)-propoxy]-phenyl}-ethanone], the melting point turned out to be 96 °C. Also, the Ki in data set [1] was in the range of 0.1 to 100 nM. This compound yielded an inhibitory constant (Ki) in data set [2] of 0.1 to 100 nM.
Take `CC(C)C(=O)N1CCN(CC(=O)c2ccc(OCCCN3CCC[C@H]3C)cc2)CC1` [Example 77, 2-Methyl-1-[4-(2-{4-[3-((R)-2-methyl-pyrrolidin-1-yl)-propoxy]-phenyl}-2-oxo-ethyl)-piperazin-1-yl]-propan-1-one]: the melting point was in the range of 220 to 226 °C. Besides, the Ki in data set [1] is 0.1 to 100 nM. In data set [2], this compound had a Ki of 0.1 to 100 nM.
Compound `O=C(CN1CCOCC1)c1ccc(OCCCN2CCN3CCC[C@H]3C2)cc1` [Example 51, 1-{4-[(S)-3-(Hexahydro-pyrrolo[1,2-a]pyrazin-2-yl)-propoxy)-phenyl}-2-morpholin-4-yl-ethanone] returned a melting point of 238 °C. Moreover, the inhibition constant (Ki) in data set [2] was > 1000 nM.
On the same counts, the results for `CC(C(=O)c1ccc(OCCCN2CCC(F)(F)C2)cc1)N1CCOCC1` (centres unmarked) [Example 56, 1-{4-[3-(3,3-Difluoro-pyrrolidin-1-yl)-propoxy]-phenyl}-2-morpholin-4-yl-propan-1-one] are 254 °C and > 1000 nM.
For `CC(=O)N1CCN(CCCOc2ccc(C(=O)CN3CCOCC3)cc2)CC1` [Example 49, 1-{4-[3-(4-Acetyl-piperazin-1-yl)-propoxy]-phenyl}-2-morpholin-4-yl-ethanone], the melting point amounted to 247 °C. Besides, the Ki in data set [2] was > 1000 nM.
Taken in the same sequence, the figures for `CC(=O)N1CCN(CCCOc2ccc(C(=O)C(C)N3CCOCC3)cc2)CC1` (centres unmarked) [Example 50, 1-{4-[3-(4-Acetyl-piperazin-1-yl)-propoxy]-phenyl}-2-morpholin-4-yl-propan-1-one] were 240 °C and > 1000 nM.
On to `O=C(CN1CCOCC1)c1ccc(OCCCN2Cc3ccccc3C2)cc1` [Example 46, 1-{4-[3-(1,3-Dihydro-isoindol-2-yl)-propoxy)-phenyl}-2-morpholin-4-yl-ethanone], for which the melting point was 139 to 139.5 °C. For the same compound, in data set [2], the Ki was > 1000 nM.
On the same counts, the results for `CC(C(=O)c1ccc(OCCCN2CCCCC2)cc1)N1CCCCC1` (centres unmarked) [Example 19, 2-Piperidin-1-yl-1-[4-(3-piperidin-1-yl-propoxy)-phenyl]-propan-1-one] are > 240 °C and 0.1 to 100 nM.

(Values after patent US20140296212A1, “SUBSTITUTED PHENOXYPROPYLCYCLOAMINE DERIVATIVES AS HISTAMINE-3 (H3) RECEPTOR LIGANDS” (CEPHALON, INC., priority 2009, published 2014).)
